# Experimental data: ChEMBL document CHEMBL4507326, “Data for DCP probe TP-030-2” (2021)
# Assays:
# [1] = molecular target: Serine/threonine-protein kinase pim-3 (Homo sapiens, UniProt Q86V86); test: Pim3(PIM3LGP1) Takeda global kinase panel
# [2] = molecular target: Wee1-like protein kinase 2 (Homo sapiens, UniProt P0C1S8); test: Wee1B(WE1BLGF1) Takeda global kinase panel
# [3] = molecular target: Serine/threonine-protein kinase 24 (Homo sapiens, UniProt Q9Y6E0); test: MST3(ST24LGC1) Takeda global kinase panel
# [4] = molecular target: Neuropeptide Y receptor type 1 (Homo sapiens) (UniProt P25929); test: Inhibition of Neuropeptide Y Y1 at 10 µM in the Eurofins-Panlabs radioligand binding assay (Eurofins_assay_257010); settings: Compound concentration 10.0 uM
# [5] = molecular target: Voltage-dependent N-type calcium channel subunit alpha-1B (Homo sapiens) (UniProt Q00975); test: Inhibition of Calcium Channel N-Type at 10 µM in the Eurofins-Panlabs radioligand binding assay (Eurofins_assay_216000); settings: Rattus norvegicus; Compound concentration 10.0 uM
# [6] = molecular target: Mitogen-activated protein kinase 10 (Homo sapiens, UniProt P53779); test: JNK3(MP10LGF2) Takeda global kinase panel
# [7] = molecular target: cAMP-dependent protein kinase catalytic subunit gamma (Homo sapiens, UniProt P22612); test: PKAgamma(PRCGLGY1) Takeda global kinase panel
# [8] = molecular target: Mitogen-activated protein kinase 1 (Homo sapiens, UniProt P28482); test: ERK2(MAP1LGY1) Takeda global kinase panel
# [9] = molecular target: Casein kinase I isoform delta (Homo sapiens, UniProt P48730); test: CK1delta(CS1DLGI1) Takeda global kinase panel
# [10] = molecular target: TRAF2 and NCK-interacting protein kinase (Homo sapiens, UniProt Q9UKE5); test: TNIK [ZC2(TNIKLGF1)] Takeda global kinase panel
# [11] = molecular target: Muscle, skeletal receptor tyrosine-protein kinase (Homo sapiens, UniProt O15146); test: MUSK(MUSKLGY1) Takeda global kinase panel
# [12] = molecular target: G protein-coupled receptor kinase 5 (Homo sapiens, UniProt P34947); test: GRK5(GRK5LGP1) Takeda global kinase panel
# [13] = molecular target: Ribosomal protein S6 kinase alpha-6 (Homo sapiens, UniProt Q9UK32); test: RSK4(R6A6LGF1) Takeda global kinase panel
# [14] = molecular target: Mitogen-activated protein kinase kinase kinase 11 (Homo sapiens, UniProt Q16584); test: MLK3(M311LGF1) Takeda global kinase panel
# [15] = molecular target: Serine/threonine-protein kinase TBK1 (Homo sapiens, UniProt Q9UHD2); test: TBK1(TBK1CGF1) Takeda global kinase panel
# [16] = molecular target: Inhibitor of nuclear factor kappa-B kinase subunit alpha (Homo sapiens, UniProt O15111); test: IKKalpha(CHUKLGP1) Takeda global kinase panel
# [17] = molecular target: Muscarinic acetylcholine receptor M1 (Homo sapiens) (UniProt P11229); settings: Compound concentration 10.0 uM
# [18] = molecular target: Serine/threonine-protein kinase/endoribonuclease IRE1 (Homo sapiens, UniProt O75460); test: IRE1(ERN1PHY1) Takeda global kinase panel
# Oryctolagus cuniculus = organism: Oryctolagus cuniculus; settings: Compound concentration 10.0 uM
# [19] = molecular target: 5-hydroxytryptamine receptor 3A (Homo sapiens) (UniProt P46098); settings: Compound concentration 10.0 uM
# [20] = molecular target: Tyrosine-protein kinase Fes/Fps (Homo sapiens, UniProt P07332); test: Fes(FES1LHY1) Takeda global kinase panel
# Wee1-like protein kinase = Wee1-like protein kinase (Homo sapiens, UniProt P30291); test: Wee1(WEE1LGF1) Takeda global kinase panel
# [21] = molecular target: Cyclin-dependent kinase 3 (Homo sapiens, UniProt Q00526); test: CDK3(CDK3CGS1) Takeda global kinase panel
# [22] = molecular target: Interferon-induced, double-stranded RNA-activated protein kinase (Homo sapiens, UniProt P19525); test: PKR(EIK2LGY1) Takeda global kinase panel
# Rattus norvegicus = organism: Rattus norvegicus; test: Inhibition of Rolipram at 10 µM in the Eurofins-Panlabs radioligand binding assay (Eurofins_assay_268811); type: protein assay; parameters: ligand concentration 1.8 nM; settings: Compound concentration 10.0 uM
# Activin receptor type-2A = Activin receptor type-2A (Homo sapiens, UniProt P27037); test: ACtR2(AC2ALGE1) Takeda global kinase panel
# [23] = molecular target: Cyclin-dependent kinase 7 (Homo sapiens, UniProt P50613); test: CDK7(CDK7CGS1) Takeda global kinase panel
# [24] = molecular target: Death-associated protein kinase 1 (Homo sapiens, UniProt P53355); test: DAPK1(DAP1LGF1) Takeda global kinase panel
# [25] = molecular target: Alpha-2A adrenergic receptor (Homo sapiens) (UniProt P08913); settings: Compound concentration 10.0 uM
# [26] = molecular target: Sodium-dependent dopamine transporter (Homo sapiens) (UniProt Q01959); settings: Compound concentration 10.0 uM
# Ephrin type-B receptor 1 = Ephrin type-B receptor 1 (Homo sapiens, UniProt P54762); test: EphB1(EPB1LGY1) Takeda global kinase panel
# [27] = molecular target: Homeodomain-interacting protein kinase 1 (Homo sapiens, UniProt Q86Z02); test: HIPK1(HIP1LGF1) Takeda global kinase panel
# [28] = molecular target: Protein kinase C alpha type (Homo sapiens, UniProt P17252); test: PKCalpha(PRKALGY1) Takeda global kinase panel
# [29] = molecular target: Casein kinase I isoform epsilon (Homo sapiens, UniProt P49674); test: CK1epsilon(CS1ELGI5) Takeda global kinase panel
# [30] = molecular target: Protein-tyrosine kinase 6 (Homo sapiens, UniProt Q13882); test: Brk(PTK6LGY1) Takeda global kinase panel
# [31] = molecular target: Eukaryotic translation initiation factor 2-alpha kinase 1 (Homo sapiens, UniProt Q9BQI3); test: HRI(EIK1CGQ1) Takeda global kinase panel
# [32] = molecular target: Serine/threonine-protein kinase ULK2 (Homo sapiens, UniProt Q8IYT8); test: ULK2(ULK2LGY1) Takeda global kinase panel
# [33] = molecular target: Serine/threonine-protein kinase TNNI3K (Homo sapiens, UniProt Q59H18); test: HH498(TNNILGY1) Takeda global kinase panel
# [34] = molecular target: Myosin light chain kinase family member 4 (Homo sapiens, UniProt Q86YV6); test: SgK085(SG85LGY1) Takeda global kinase panel
# [35] = molecular target: Serine/threonine-protein kinase greatwall (Homo sapiens, UniProt Q96GX5); test: MASTL(MASLLGE1) Takeda global kinase panel
# Ephrin type-A receptor 7 = Ephrin type-A receptor 7 (Homo sapiens, UniProt Q15375); test: EphA7(EPA7LGF1) Takeda global kinase panel
# [36] = molecular target: Serine/threonine-protein kinase LATS1 (Homo sapiens, UniProt O95835); test: LATS1(LAT1LGRJ) Takeda global kinase panel
# [37] = molecular target: Bone morphogenetic protein receptor type-1A (Homo sapiens, UniProt P36894); test: BMPR1A(BM1APHRG) Takeda global kinase panel
# Sequence of Wee1-like protein kinase 2 (P0C1S8 whole entry): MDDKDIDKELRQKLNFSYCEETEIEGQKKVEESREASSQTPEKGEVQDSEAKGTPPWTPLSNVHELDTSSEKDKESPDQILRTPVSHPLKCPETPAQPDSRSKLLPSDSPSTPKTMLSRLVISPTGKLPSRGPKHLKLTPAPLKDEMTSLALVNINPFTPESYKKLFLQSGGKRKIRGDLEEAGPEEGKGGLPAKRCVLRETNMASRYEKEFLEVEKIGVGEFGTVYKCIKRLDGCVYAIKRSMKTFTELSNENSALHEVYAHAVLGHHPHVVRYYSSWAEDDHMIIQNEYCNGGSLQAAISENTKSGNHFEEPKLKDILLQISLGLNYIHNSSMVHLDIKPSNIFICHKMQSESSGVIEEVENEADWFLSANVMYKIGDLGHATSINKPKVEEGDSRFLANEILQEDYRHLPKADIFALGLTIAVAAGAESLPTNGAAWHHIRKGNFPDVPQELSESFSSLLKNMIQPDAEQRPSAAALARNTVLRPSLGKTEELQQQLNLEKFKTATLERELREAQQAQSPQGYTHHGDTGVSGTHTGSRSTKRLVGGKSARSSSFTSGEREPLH
# Sequence of 5-hydroxytryptamine receptor 3A (Homo sapiens) (P46098 whole entry): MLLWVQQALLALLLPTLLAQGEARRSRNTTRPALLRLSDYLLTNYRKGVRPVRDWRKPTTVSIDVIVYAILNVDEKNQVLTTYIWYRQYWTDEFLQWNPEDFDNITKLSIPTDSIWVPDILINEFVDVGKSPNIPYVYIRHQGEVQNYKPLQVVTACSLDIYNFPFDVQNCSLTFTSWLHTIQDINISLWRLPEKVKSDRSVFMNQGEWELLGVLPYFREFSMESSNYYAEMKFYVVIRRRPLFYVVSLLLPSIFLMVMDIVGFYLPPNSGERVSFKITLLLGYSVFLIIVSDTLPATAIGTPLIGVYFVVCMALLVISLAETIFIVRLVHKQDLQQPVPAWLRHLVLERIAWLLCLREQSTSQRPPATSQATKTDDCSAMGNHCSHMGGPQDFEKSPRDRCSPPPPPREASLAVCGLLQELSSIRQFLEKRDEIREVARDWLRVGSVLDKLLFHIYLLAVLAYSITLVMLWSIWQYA
# Sequence of Eukaryotic translation initiation factor 2-alpha kinase 1 (Q9BQI3 whole entry): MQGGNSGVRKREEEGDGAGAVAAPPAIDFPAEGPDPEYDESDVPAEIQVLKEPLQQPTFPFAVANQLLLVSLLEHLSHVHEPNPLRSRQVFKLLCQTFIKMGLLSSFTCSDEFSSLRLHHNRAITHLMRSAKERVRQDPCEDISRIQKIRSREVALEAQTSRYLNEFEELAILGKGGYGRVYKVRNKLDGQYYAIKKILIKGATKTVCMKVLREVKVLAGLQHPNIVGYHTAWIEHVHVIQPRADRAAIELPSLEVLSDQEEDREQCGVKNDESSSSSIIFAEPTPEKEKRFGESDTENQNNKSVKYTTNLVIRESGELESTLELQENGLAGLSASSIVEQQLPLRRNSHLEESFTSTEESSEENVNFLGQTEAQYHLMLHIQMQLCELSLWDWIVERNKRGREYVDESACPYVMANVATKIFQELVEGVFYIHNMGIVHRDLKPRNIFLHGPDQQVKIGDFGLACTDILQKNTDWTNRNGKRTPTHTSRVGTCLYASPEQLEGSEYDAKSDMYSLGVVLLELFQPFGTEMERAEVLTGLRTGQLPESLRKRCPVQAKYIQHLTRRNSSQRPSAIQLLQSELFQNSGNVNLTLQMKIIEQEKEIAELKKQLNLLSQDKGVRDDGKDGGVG
# Sequence of Voltage-dependent N-type calcium channel subunit alpha-1B (Homo sapiens) (Q00975 whole entry, looked up): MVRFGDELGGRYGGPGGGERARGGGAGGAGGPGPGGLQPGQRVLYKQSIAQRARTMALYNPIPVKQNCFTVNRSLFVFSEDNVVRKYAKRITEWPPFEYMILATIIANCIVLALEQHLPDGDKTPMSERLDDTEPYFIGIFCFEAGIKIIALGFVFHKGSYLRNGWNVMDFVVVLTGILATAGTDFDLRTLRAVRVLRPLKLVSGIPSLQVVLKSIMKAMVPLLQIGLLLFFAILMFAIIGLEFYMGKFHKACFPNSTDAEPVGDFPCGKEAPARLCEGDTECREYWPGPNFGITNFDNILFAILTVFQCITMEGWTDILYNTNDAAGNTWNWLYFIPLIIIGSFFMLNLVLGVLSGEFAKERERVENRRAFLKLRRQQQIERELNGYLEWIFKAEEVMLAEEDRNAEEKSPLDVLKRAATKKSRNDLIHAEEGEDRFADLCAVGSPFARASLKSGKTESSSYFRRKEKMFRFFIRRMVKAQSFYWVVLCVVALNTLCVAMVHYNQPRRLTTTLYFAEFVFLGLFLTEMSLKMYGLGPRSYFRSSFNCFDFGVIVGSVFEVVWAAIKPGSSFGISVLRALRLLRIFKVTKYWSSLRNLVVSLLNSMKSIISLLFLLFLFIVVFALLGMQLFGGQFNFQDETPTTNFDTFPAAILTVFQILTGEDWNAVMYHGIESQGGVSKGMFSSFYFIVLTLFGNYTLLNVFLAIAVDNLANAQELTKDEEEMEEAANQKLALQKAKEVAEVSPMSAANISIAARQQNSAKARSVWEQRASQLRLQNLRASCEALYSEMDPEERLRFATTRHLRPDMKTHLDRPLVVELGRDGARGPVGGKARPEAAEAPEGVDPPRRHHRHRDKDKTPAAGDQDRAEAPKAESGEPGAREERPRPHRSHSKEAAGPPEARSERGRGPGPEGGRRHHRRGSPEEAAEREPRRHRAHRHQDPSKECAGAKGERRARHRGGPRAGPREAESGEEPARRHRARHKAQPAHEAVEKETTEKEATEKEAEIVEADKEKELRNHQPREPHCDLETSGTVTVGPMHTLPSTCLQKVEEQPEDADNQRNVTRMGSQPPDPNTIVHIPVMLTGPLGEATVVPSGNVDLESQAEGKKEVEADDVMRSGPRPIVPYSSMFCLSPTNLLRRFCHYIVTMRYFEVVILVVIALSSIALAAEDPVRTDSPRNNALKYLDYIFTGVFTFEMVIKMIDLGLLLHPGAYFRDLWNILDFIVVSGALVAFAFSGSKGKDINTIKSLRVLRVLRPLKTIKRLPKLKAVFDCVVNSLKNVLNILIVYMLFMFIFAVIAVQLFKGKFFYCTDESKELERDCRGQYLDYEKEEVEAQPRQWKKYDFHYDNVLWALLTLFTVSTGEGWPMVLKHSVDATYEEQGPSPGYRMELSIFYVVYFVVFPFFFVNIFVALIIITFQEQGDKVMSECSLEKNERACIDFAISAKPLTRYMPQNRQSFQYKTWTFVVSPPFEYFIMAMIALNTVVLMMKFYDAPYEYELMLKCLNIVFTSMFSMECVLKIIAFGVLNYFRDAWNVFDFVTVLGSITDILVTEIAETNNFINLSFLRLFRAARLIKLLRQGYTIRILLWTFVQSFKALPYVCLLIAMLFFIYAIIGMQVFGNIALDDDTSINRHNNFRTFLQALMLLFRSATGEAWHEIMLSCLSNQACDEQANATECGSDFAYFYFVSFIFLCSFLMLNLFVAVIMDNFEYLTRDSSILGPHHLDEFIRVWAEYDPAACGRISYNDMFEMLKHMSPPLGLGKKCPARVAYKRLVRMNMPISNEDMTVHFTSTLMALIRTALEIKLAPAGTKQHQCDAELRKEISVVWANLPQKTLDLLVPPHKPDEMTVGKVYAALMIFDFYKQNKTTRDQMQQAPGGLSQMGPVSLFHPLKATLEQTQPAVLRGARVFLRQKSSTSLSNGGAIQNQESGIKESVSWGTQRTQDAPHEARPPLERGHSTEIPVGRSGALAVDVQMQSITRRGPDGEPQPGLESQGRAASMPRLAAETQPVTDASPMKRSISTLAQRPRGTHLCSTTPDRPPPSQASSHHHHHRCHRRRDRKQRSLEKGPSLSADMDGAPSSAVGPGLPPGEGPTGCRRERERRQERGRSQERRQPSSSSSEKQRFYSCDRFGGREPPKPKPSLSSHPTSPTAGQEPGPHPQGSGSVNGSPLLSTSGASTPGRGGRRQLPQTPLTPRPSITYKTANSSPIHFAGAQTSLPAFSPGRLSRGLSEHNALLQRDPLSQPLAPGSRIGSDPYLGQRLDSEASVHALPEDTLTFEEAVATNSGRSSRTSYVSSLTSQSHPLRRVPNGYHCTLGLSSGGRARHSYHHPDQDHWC
# Sequence of Muscle, skeletal receptor tyrosine-protein kinase (O15146 whole entry): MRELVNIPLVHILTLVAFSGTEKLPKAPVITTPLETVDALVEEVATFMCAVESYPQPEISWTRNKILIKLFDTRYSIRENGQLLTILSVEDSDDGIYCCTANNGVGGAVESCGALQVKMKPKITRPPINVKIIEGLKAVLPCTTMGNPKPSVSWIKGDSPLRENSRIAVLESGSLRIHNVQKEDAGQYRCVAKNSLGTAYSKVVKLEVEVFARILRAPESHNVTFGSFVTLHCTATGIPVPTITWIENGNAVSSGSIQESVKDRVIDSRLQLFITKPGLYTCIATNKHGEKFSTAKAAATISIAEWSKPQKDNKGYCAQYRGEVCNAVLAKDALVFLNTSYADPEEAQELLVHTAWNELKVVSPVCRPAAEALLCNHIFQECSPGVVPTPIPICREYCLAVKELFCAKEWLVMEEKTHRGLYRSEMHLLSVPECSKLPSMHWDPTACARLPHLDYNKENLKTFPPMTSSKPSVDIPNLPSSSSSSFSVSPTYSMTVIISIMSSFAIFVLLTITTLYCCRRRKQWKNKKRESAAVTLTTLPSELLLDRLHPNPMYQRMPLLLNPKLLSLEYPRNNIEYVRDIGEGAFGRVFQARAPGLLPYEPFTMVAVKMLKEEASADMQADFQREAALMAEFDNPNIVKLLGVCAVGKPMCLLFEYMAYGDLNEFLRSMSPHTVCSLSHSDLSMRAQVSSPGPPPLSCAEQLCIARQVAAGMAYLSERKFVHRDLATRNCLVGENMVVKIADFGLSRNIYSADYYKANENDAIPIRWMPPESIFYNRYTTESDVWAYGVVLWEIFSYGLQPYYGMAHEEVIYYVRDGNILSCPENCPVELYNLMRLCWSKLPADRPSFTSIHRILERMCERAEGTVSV
smiles,measurement,setting,value
CN1C(=O)[C@@H](N2CCc3c(nn(Cc4ccccc4)c3Br)C2=O)COc2ccccc21 [TP-030-2],IC50,[1],1 µM
same,IC50,[2],1 µM
same,IC50,[3],1 µM
same,inhibition,[4],10%
same,inhibition,[5],-1%
same,IC50,[6],1 µM
same,IC50,[7],1 µM
same,IC50,[8],1 µM
same,IC50,[9],1 µM
same,IC50,[10],1 µM
same,IC50,[11],1 µM
same,IC50,[12],1 µM
same,IC50,[13],1 µM
same,IC50,[14],1 µM
same,IC50,[15],1 µM
same,IC50,[16],1 µM
same,inhibition,[17],21.6%
same,IC50,[18],1 µM
same,inhibition,Oryctolagus cuniculus,-4%
same,inhibition,[19],37.7%
same,IC50,[20],1 µM
same,IC50,Wee1-like protein kinase,1 µM
same,IC50,[21],1 µM
same,IC50,[22],1 µM
same,inhibition,Rattus norvegicus,0%
same,IC50,Activin receptor type-2A,1 µM
same,IC50,[23],1 µM
same,IC50,[24],1 µM
same,inhibition,[25],43%
same,inhibition,[26],35%
same,IC50,Ephrin type-B receptor 1,1 µM
same,IC50,[27],1 µM
same,IC50,[28],1 µM
same,IC50,[29],1 µM
same,IC50,[30],1 µM
same,IC50,[31],1 µM
same,IC50,[32],1 µM
same,IC50,[33],1 µM
same,IC50,[34],1 µM
same,IC50,[35],1 µM
same,IC50,Ephrin type-A receptor 7,1 µM
same,IC50,[36],1 µM
same,IC50,[37],1 µM
